Values of other authors in patent US20240101584A1, “TARGETED DELIVERY OF 1,2,4,5 TETRAOXANE COMPOUNDS AND THEIR USES” (Westlake University, priority 2021, published 2024).

What was measured:
[1] = test system: MDA-MB-231 cells; conditions: reported data of known compounds; cited from earlier work
[2] = test system: HCT116 cells; conditions: reported data of known compounds; cited from earlier work
[3] = test system: HL-60 cells; conditions: cited from earlier work; for IC50: reported data of known compounds
[4] = test system: Hela cells; conditions: reported compound in the literature; read-out: overall IC50, Hela cells, reported compound; cited from earlier work
[5] = test system: PMBC; conditions: reported compound in the literature; cited from earlier work
[6] = test system: HEK293 cells; conditions: reported compound in the literature; read-out: overall IC50, HEK293 cells, reported compound; cited from earlier work
[7] = test system: HepG2 cells; conditions: reported compound in the literature; read-out: overall IC50, HepG2 cells, reported compound; cited from earlier work

CC(C)(N)CNC(=O)C[C@H]1CC[C@]2(CC1)OO[C@]1(O2)C2CC3CC(C2)CC1C3 [OZ277]
IC50 [1]: 35.2 µM
IC50 [2]: 68.3 µM
IC50 [3]: 53.8 µM

CN1CCN(C2CCN(C(=O)CC3CCC4(CC3)OOC3(OO4)C4CC5CC(C4)CC3C5)CC2)CC1 (stereo not drawn) [RKA182]
IC50 [4]: > 12 µM
IC50 [5]: 46.6 ± 0.7 µM
IC50 [6]: > 12 µM
best selectivity index (PMBC versus HL-60) ([3]; reported compound in the literature): 4
IC50 [3]: 11.6 ± 0.4 µM
IC50 [7]: > 12 µM
